# Reference: patent US20220225627A1, “A NUTRITIONAL COMPOSITION FOR USE TO ENHANCE EXECUTIVE FUNCTION” (SOCIETE DES PRODUITS NESTLE S.A., priority 2019, published 2022)
# How the values were obtained:
# Format in all cases: in vivo
# [1] = test system: myelin basic protein (MBP); assay: myelin gene expression in brain samples (QuantSeq 3′ mRNA-Seq), MBP; details: mice receiving milk without 6′SL, fold change relative to control mice receiving milk with 6′SL; FIG. 4
# Text: (§1) Adult wild-type (WT) B6.129 and heterozygous (HZ) B6.129-St6gal1^tm2Jxm breeding pairs (four males and four females and three males and four females, respectively) were purchased from a commercial breeder (The Jackson Laboratory). Upon arrival, same-sex mice were housed in same-sex groups of 2-3 in type-1 polycarbonate cages (33.0×13.0×14.0 cm) equipped with sawdust bedding, an enrichment bag (Mucedola, Settimo Milanese, Italy), metal top and ad libitum water and food pellets (Mucedola, Settimo Milanese, Italy). Mice were maintained on a reversed 12-h-light-dark cycle (light on at 7:00 PM) in an air-conditioned room (temperature 21±1C and relative humidity 60±10%). Two weeks after arrival, breeding triads (one male, two females) were formed. After two weeks of mating, male mice were removed and females were housed individually in standard type-1 cages. […]
# (§2) Total RNA is extracted using the Agencourt RNAdvance Tissue Kit (Beckman Coulter): Lysis was done in 450 μL. […] Elution volume 50 μL Quantification is performed using Quant It Ribogreen assay (Life Technologies) QC assessment is performed using Standard sensitivity RNA kit on Fragment Analyzer 96 (Agilent). […]
# (§3) Library generation starts with oligodT priming containing the Illumina-specific Read 2 linker sequence. […] The random primer contains the Illumina-specific Read 1linker sequence. […]
# [2] = test system: myelin-associated glycoprotein (MAG); assay: myelin gene expression in brain samples (QuantSeq 3′ mRNA-Seq), MAG; details: mice receiving milk without 6′SL, fold change relative to control mice receiving milk with 6′SL; FIG. 4
# Text: as §1, §2, §3
# [3] = test system: genes related to myelination; myelination and myelin sheath pathway; assay: expression of myelination-related genes and KEGG pathways in brain samples; details: mice receiving milk without 6′SL
# Text: Adult wild-type (WT) B6.129 and heterozygous (HZ) B6.129-St6gal1^tm2Jxm breeding pairs (four males and four females and three males and four females, respectively) were purchased from a commercial breeder (The Jackson Laboratory). Upon arrival, same-sex mice were housed in same-sex groups of 2-3 in type-1 polycarbonate cages (33.0×13.0×14.0 cm) equipped with sawdust bedding, an enrichment bag (Mucedola, Settimo Milanese, Italy), metal top and ad libitum water and food pellets (Mucedola, Settimo Milanese, Italy). Mice were maintained on a reversed 12-h-light-dark cycle (light on at 7:00 PM) in an air-conditioned room (temperature 21±1C and relative humidity 60±10%). Two weeks after arrival, breeding triads (one male, two females) were formed. After two weeks of mating, male mice were removed and females were housed individually in standard type-1 cages. Females were checked daily for delivery and the day in which they gave birth was designated as postnatal day (PND) 0. Apart from cage cleaning once a week, dams and their offspring were kept undisturbed until weaning (on PND 25). At weaning, male and female mice were separated and located in same-sex same-litter cages; additionally, male mice were marked through ear clipping and the ear tissue removed through this procedure was used for genotyping. Homozygous knock-out (KO) and WT mice were then used for the experiments.
# Fourteen wild type (WT) and 14 St6Gal1 Homozygous (hereafter KO) female mice have been mated with seven WT and seven KO male mice respectively. Out of this batch, 10 WT and 10 KO dams gave birth to a viable offspring. […]
# as §2, §3
smiles,measurement,setting,value
"CC(=O)N[C@H]1[C@H]([C@H](O)[C@H](O)CO)O[C@@](OC[C@H]2O[C@@H](O[C@H]3[C@H](O)[C@@H](O)C(O)O[C@@H]3CO)[C@H](O)[C@@H](O)[C@H]2O)(C(=O)O)C[C@@H]1O (stereo partly drawn) [6′SL, (6R)-5-Acetamido-3,5-dideoxy-6-[(1R,2R)-1,2,3-trihydroxypropyl]-β-L-threo-hex-2-ulopyranonosyl-(2->6)-β-D-galactopyranosyl-(1->4)-D-glucopyranose]",reduction of the expression of myelin basic protein (MBP),[1],50%
same,reduction of the expression of myelin-associated glycoprotein (MAG),[2],50%
same,expression of multiple genes related to myelination,"[3]; adulthood, and hippocampus at both ages",neither observed
same,KEGG myelination and myelin sheath pathway,[3]; only in prefrontal cortex during early life,down-regulated
same,expression of multiple genes related to myelination,[3]; prefrontal cortex during early life,reduced
